# Where two headings read alike, the source gives them in different places.
# Key:
# ER [1] = target: T1, ER (Homo sapiens, UniProt P03372); assay: Degradation activities on ER (ELISA) in T47D breast cancer cells; assay type: cell-based; conditions: T47D cells, 24 h, ELISA; for DC50: concentration required to degrade 50% of the target protein; for Dmax: maximum percentage of target protein degraded
# T1 construct: T47D breast cancer cells were subcultured in cell culture medium; endogenous in cells; host or cells: T47D breast cancer cells
# T1 sequence (P03372 1-595): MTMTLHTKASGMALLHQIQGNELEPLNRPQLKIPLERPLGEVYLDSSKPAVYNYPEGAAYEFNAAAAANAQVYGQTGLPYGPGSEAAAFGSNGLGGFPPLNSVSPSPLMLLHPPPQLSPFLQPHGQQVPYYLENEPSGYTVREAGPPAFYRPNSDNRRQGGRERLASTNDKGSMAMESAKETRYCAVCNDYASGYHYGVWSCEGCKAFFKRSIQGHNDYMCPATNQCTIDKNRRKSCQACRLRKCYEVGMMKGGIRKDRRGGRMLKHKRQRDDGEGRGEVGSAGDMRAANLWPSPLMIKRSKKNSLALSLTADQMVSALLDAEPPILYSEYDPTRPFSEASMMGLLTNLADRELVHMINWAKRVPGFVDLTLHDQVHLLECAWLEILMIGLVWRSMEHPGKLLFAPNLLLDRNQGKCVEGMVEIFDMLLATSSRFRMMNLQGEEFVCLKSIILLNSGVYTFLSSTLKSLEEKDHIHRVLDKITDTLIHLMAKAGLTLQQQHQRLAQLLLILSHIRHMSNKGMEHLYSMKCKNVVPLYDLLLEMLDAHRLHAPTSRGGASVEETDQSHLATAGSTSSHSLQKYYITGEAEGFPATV
# Procedure, shortened: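 Cellular ER degradation ELISA: compound dosed 24 h on T47D cells (2.5×10^4/well, pre-grown 3 days) at six final levels from 100 nM downward. Remaining ER was detected by HRP-TMB absorbance at 450 nm. Dose-response fitting gave DC50 and Dmax, the maximal percentage degraded.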
# [2] = tested on: MCF-7 breast cancer cells; assay: Inhibition of proliferation of MCF-7 breast cancer cells (agarose culture, CellTiter-Glo 3D); assay type: cell-based; conditions: MCF-7 cells, 15 days of cultivation, read-out: IC50
# [3] = Pharmacokinetics in female ICR mice; conditions: plasma; for half-life / AUC(0-inf): female, ICR, mouse, po; for AUC(0-inf): AUCinf (μg*h/mL); for AUC(0-inf) / AUCinf (μg*h/mL) / T1/2 (h): oral administration 3 mg/kg, female ICR mice
# Method: Pharmacokinetic experimental steps: A suitable amount of compound to be administered was weighed, and after the final volume required was calculated, a drug solution with corresponding concentration was prepared using the medium (DMSO/HS-15/Tween 80/D5W (5:5:2:88, v/v/v/v)). For intravenous administration, each drug was administered to 9 animals (female ICR mice, provided by Chengdu Dossy Experimental Animal Co., Ltd.) at a dose of 1 mg/kg (drug volume of 10 mL/kg, drug concentration of 0.1 mg/mL). After administration, samples were alternately collected from three animals of each group at time points of 5 min, 15 min, 30 min, 1 h, 2 h, 4 h, 8 h, 12 h, and 24 h. For oral gavage, each drug was administered to 9 animals (female ICR mice) at a dose of 3 mg/kg (drug volume of 10 mL/kg, drug concentration of 0.3 mg/mL). After administration, samples are alternately collected from three animals of each group at time points of 15 min, 30 min, 1 h, 2 h, 4 h, 6 h, 8 h, 12 h, and 24 h. The samples were anticoagulated with EDTA-K2 and centrifuged at 4° C. for 5 min to separate the plasma. The plasma samples were vortexed and mixed. A suitable amount of internal standard working solution was added to the 96-well plate containing samples used for plotting standard curve, samples used for quality control, or samples to be tested; A suitable amount of methanol was added to the blank sample, vortexed and mixed thoroughly, and then centrifuged for 15 min before the supernatant was collected and injected to LC-MS/MS for analysis. The plasma concentration at each time point was used to calculate the main pharmacokinetic parameters using the Winnolin 8.3 non-compartmental model.
# [4] = tested on: MCF-7 breast cancer cells; assay: Pharmacodynamic experiment in mouse models of human breast cancer (MCF-7 tumors); assay type: in vivo, NOD/SCID female mice; conditions: dose 10 mg/kg, once-daily oral gavage
# Method: MCF-7 breast cancer cells were cultured in MEM medium containing 10% FBS, 0.01 mM NEAA, and 10 µg/mL insulin. MCF-7 cells in the exponential growth phase were collected and resuspended in PBS to a suitable concentration for subcutaneous injection into mice. The experimental animals were NOD/SCID female mice (purchased from GemPharmatech Co. Itd, Jiangsu). Before inoculation of tumor cells, a 0.36 mg/60-day slow-release estrogen tablet (17β-estradiol, Innovative Research of America, Sarasota, Florida, USA) was subcutaneously implanted on the right side of the back of the experimental animals. The day after estrogen tablet implantation, 2×10^7 MCF-7 cells were inoculated into the right mammary fatty pad of the experimental mice, wherein the cells were resuspended in PBS and Matrigel (1:1) (0.2 mL/mouse). The tumor growth was regularly observed.
# When the tumors in the tumor-bearing mice grew to an average volume of approximately 245.56 mm^3, they were randomly grouped for administration based on tumor size. Grouping was performed using StudyDirector™ (version 3.1.399.19, supplier Studylog System, Inc., S. San Francisco, CA, USA). […]
# After starting drug administration, the body weight and tumor size of mice were measured twice a week. […] The raw data were directly imported into the software after being measured using a balance and vernier caliper. […]
# ER [5] = target: T1, ER; assay: Degradation activities on ER (Western blotting) in T47D breast cancer cells; assay type: cell-based; conditions: Western blot; for Percentage reduction of ER: 24 h
# Procedure, shortened: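 T47D cells seeded 2.5×10^5/well, grown overnight, then treated 24 hours with compound (0.1% DMSO) in duplicate. ERα level measured by Western blot of 30 μg lysate protein, with GAPDH as loading control and ECL chemiluminescence detection.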
DC50 (ER [1]) [nM],Dmax (ER [1]; read-out: Dmax) [%],"IC50 ([2]; Homo sapiens, MCF7, 360 h) [nM]",half-life ([3]; 3 mg/kg) [h],AUC(0-inf) ([3]; 3 mg/kg) [ng·h/mL],Dmax (ER [1]),IC50 [2] [nM],Percentage reduction of ER (ER [5]; compound concentration 10 nM) [%],T1/2 (h) [3],Structure (SMILES),also measured
< 10,50 to 75,11 to 50,> 3.5,> 2500,–,–,–,–,"O=C1CCC(N2Cc3cc(N4CC5(CCN(CC6CCN(c7ccc([C@@H]8c9ccc(O)cc9OC[C@@H]8c8c(F)cccc8F)cc7F)CC6)CC5)C4)ccc3C2=O)C(=O)N1 (some centres unmarked) [Example 65, 3-(5-(7-((1-(4-(3-(2,6-difluorophenyl)-7-hydroxyl-chroman-4-yl)-2-fluorophenyl)piperidin-4-yl)methyl)-2,7-diazaspiro[3.5]nonane-2-yl)-1-oxoisoinodolin-2-yl)piperidin-2,6-dione]",–
–,–,–,2.3,1300,–,–,–,–,"O=C1CCC(N2Cc3cc(N4CCN(CC5CCN(c6ccc([C@@H]7c8ccc(O)cc8CC[C@@H]7c7ccccc7)cc6)CC5)CC4)ccc3C2=O)C(=O)N1 (some centres unmarked) [Control compound X, reference compound]",TGI (tumor growth inhibition) ([4]; day 28): 29%; average tumor volume ([4]; end of experiment (day 28)): 362 mm^3
< 10,–,–,> 3.5,1400 to 2500,B (B: 75-50%),< 10,–,–,"O=C1CCC(N2Cc3cc(N4CC5(CCN(CC6CCN(c7ccc([C@@H]8c9ccc(O)cc9OC[C@@H]8c8ccccc8F)cc7)CC6)CC5)C4)ccc3C2=O)C(=O)N1 (stereo partly drawn) [Example 89, 3-(5-(7-((1-(4-((3S, 4R)-3-(2-fluorophenyl)-7-hydroxychroman-4-yl)phenyl)piperidin-4-yl)methyl)-2,7-diazaspiro[3.5]nonane-2-yl)-1-oxoisoinodolin-2-yl)piperidin-2,6-dione]",Percentage reduction of ER (ER [5]; compound concentration 1 nM): 52%
–,50 to 75,< 10,> 3.5,> 2500,–,–,51,–,"O=C1CCC(N2Cc3cc(N4CC5(CCN(CC6CCN(c7ccc([C@@H]8c9ccc(O)cc9OC[C@@H]8c8c(F)cccc8F)cc7)CC6)CC5)C4)ccc3C2=O)C(=O)N1 (some centres unmarked) [Example 63, 3-(5-(7-((1-(4-(3-(2,6-difluorophenyl)-7-hydroxyl-chroman-4-yl)phenyl)piperidin-4-yl)methyl)-2,7-diazaspiro[3.5]nonane-2-yl)-1-oxoisoinodolin-2-yl)piperidin-2,6-dione]",–
< 10,50 to 75,–,> 3.5,> 2500,–,–,–,–,O=C1CCC(N2Cc3cc(N4CC5(CCN(CC6CCN(c7c(F)cc([C@@H]8c9ccc(O)cc9OC[C@@H]8c8c(F)cccc8F)cc7F)CC6)CC5)C4)ccc3C2=O)C(=O)N1 (some centres unmarked) [Example 37],–
< 10,–,–,–,–,B (B: 75-50%),< 10,–,A (A: >3.5 h),"O=C1CCC(N2Cc3cc(N4CC5(CCN(CC6CCN(c7ccc([C@@H]8c9ccc(O)cc9OC[C@@H]8c8c(F)cccc8F)cc7F)CC6)CC5)C4)ccc3C2=O)C(=O)N1 (stereo partly drawn) [Example 70, 3-(5-(7-((1-(4-((3S,4R)-3-(2,6-difluorophenyl)-7-hydroxychroman-4-yl)-2-fluorophenyl)piperidin-4-yl)methyl)-2,7-diazaspiro[3.5]nonane-2-yl)-1-oxoisoinodolin-2-yl)piperidin-2,6-dione]",AUCinf (μg*h/mL) [3]: A (A: > 2.5 μg*h/mL)
–,–,–,–,–,B (B: 75-50%),< 10,–,A (A: >3.5 h),"O=C1CCC(N2Cc3cc(N4CC5(CCN(CC6CCN(c7ccc([C@@H]8c9ccc(O)cc9OC[C@@H]8c8c(F)cccc8F)cc7)CC6)CC5)C4)ccc3C2=O)C(=O)N1 (stereo partly drawn) [Example 73, 3-(5-(7-((1-(4-((3S,4R)-3-(2,6-difluorophenyl)-7-hydroxychroman-4-yl)phenyl)piperidin-4-yl)methyl)-2,7-diazaspiro[3.5]nonane-2-yl)-1-oxoisoindol-2-yl)piperidin-2,6-dione]",AUCinf (μg*h/mL) ([3]; 3 mg/kg): B (B: 1.4-2.5 μg*h/mL)
10 to 50,50 to 75,11 to 50,–,–,–,–,82,–,"O=C1CCC(N2C(=O)c3ccc(N4CC5(CCN(CC6CCN(c7ccc([C@@H]8c9ccc(O)cc9OC[C@@H]8c8ccccc8)cc7)CC6)CC5)C4)cc3C2=O)C(=O)N1 (stereo partly drawn) [Example 81, 2-(2,6-dioxopiperidin-3-yl)-5-(7-((1-(4-((3S,4R)-7-hydroxyl-3-phenylchroman-4-yl)phenyl)piperidin-4-yl)methyl)-2,7-diazaspiro[3.5]nonane-2-yl)isoinodolin-1,3-dione]",ER degradation activity (in words) (ER [5]): good ER degradation activity
< 10,50 to 75,< 10,–,–,–,–,–,A (A: >3.5 h),O=C1CCC(N2Cc3cc(N4CC5(CCN(CC6CCN(c7ccc([C@@H]8c9ccc(O)cc9OC[C@@H]8c8ccccc8F)cc7)CC6)CC5)C4)ccc3C2=O)C(=O)N1 (some centres unmarked) [Example 30],Percentage reduction of ER (ER [5]; compound concentration 1 nM): 62%; AUCinf (μg*h/mL) [3]: B (B: 1.4-2.5 μg*h/mL)
< 10,50 to 75,< 10,> 3.5,1400 to 2500,–,–,81,–,"O=C1CCC(N2Cc3cc(N4CC5(CCN(CC6CCN(c7c(F)cc([C@@H]8c9ccc(O)cc9OC[C@@H]8c8ccccc8F)cc7F)CC6)CC5)C4)ccc3C2=O)C(=O)N1 (stereo partly drawn) [Example 32, 3-(5-(7-((1-(2,6-difluoro-4-((3,4-cis)-3-(2-fluorophenyl)-7-hydroxybenzodihydropyran-4-yl)phenyl)piperidin-4-yl)methyl)-2,7-diazaspiro[3.5]nonane-2-yl)-1-oxoisoinodolin-2-yl)piperidin-2,6-dione]",–

# Source: patent US20260258039A1, “AROMATIC COMPOUND, METHOD FOR PREPARING SAME, AND USE THEREOF IN PREPARATION OF ESTROGEN RECEPTOR DEGRADER” (Hinova Pharmaceuticals Inc., priority 2022, published 2026)
